Data published in patent publication US20230285434A1 (priority 2020, published 2023).
“And” between values parts separate entries of the source, which are not always exact repeats. Equal entries are not always repeated. Structures can show the parent of a compound that is named as a salt.

What was measured:
Lassa virus [1] = assay: microbe, parasite or virus in culture; assay type: cell-based; conditions: Mammarenavirus lassaense, Vero C1008
Lassa virus [2] = assay: microbe, parasite or virus in culture; assay type: cell-based
[3] = Mammarenavirus lassaense, Huh-7

Compound `NC(=O)c1cn([C@@H]2O[C@H](CO)[C@@H](O)[C@H]2O)c2ncnc(N)c12` [Oya1, 4-amino-7-((2R,3R,4S,5R)-3,4-dihydroxy-5-(hydroxymethyl)tetrahydrofuran-2-yl)-7H-pyrrolo[2,3-d]pyrimidine-5-carboxamide] has an inhibition at 0.075 µM (Lassa virus [1]) of 89.2%, an inhibition at 0.15 µM (Lassa virus [1]) of 100% and an inhibition at 0.3 µM (Lassa virus [1]) of 101%. The inhibition at 0.6 µM (Lassa virus [1]) was 101%, the Inhibition (Lassa virus [2]; 0.0047 µM) was 33.96% and 28.083% and 24.36% and 25.62% and 25.65% and the Inhibition (Lassa virus [2]; 0.0094 µM) was 26.74% and 30.9% and 23.28% and 15.83% and 22.14% and 20.065%. It also gave an inhibition at 0.0047 µM (Lassa virus [2]; [3]) of 32.3%, an inhibition at 0.15 µM (Lassa virus [2]; [3]) of 79.9% and an inhibition at 0.3 µM (Lassa virus [2]; [3]) of 97.6%. It also gave an inhibition at 0.6 µM (Lassa virus [2]; [3]) of 98.8%.
`Cl.NC(=O)c1cn([C@@H]2O[C@H](CO)[C@@H](O)[C@H]2O)c2ncnc(N)c12` [Oya2, 4-amino-7-((2R,3R,4S,5R)-3,4-dihydroxy-5-(hydroxymethyl)tetrahydrofuran-2-yl)-7H-pyrrolo[2,3-d]pyrimidine-5-carboxamide hydrochloride] was tested, and the Inhibition (Lassa virus [2]; 0.0047 µM, hydrochloride) was 28.74% and 26.14% and 27.5% and the Inhibition (Lassa virus [2]; 0.0094 µM, hydrochloride) was 21.1% and 20.68% and 22.57%.
`CN(C)CCOc1ccc(/C(=C(/CCCl)c2ccccc2)c2ccccc2)cc1` [Toremifene citrate, reference compound] was tested, and the Inhibition (Lassa virus [2]; 0.4688 µM) was 31.7829% and 32.93% and 31.98% and 27.3% and 32.75%, the Inhibition (Lassa virus [2]; 0.9375 µM) was 22.38% and 19.16% and 30.38% and 25.19% and 18.19% and the Inhibition (Lassa virus [2]; 1.875 µM) was 18.84% and 15.13% and 24.79% and 16.6% and 19.82%. For the same compound, the Inhibition (Lassa virus [2]; 3.75 µM) was 15.93% and 10.32% and 20.17% and 17.07% and 18.53%, the inhibition at 0.4688 µM (Lassa virus [2]; [3]) was 37.4% and the inhibition at 0.9375 µM (Lassa virus [2]; [3]) was 29.9%. It also gave an inhibition at 1.875 µM (Lassa virus [2]; [3]) of 20.9% and an inhibition at 3.75 µM (Lassa virus [2]; [3]) of 16.3%.
